Reference: patent US10314843B2, “Combinations for the treatment of neoplasms using quiescent cell targeting and inhibitors of mitosis” (Felicitex Therapeutics, Inc., priority 2016, dated 2019)
pEC50: −log10 of the molar value.

Tests used:
Type in all cases: cell-based
SW620 cells = test: FACS cell cycle distribution by DNA content (propidium iodide), SW620 cells in FBS- media; settings: 24 hours in FBS- media, AZ191 2.5, 5, 10 μM, Compound I-7 1.25, 2.5, 5 μM
Protocol: Cell cultures were seeded into 6-well plates at 3×10^5-6×10^5 cells/well; the plated number of cells depended on cell size and rate of proliferation, aiming for approximately 50% confluency. After seeding, the cells were allowed to attach for 24 hours while incubated at 37° C. in a humidified 5% CO2 atmosphere, and then treated with compounds for desired amount of time (usually 24 hours) incubating under same conditions. Then the cells were harvested by trypsinization, pooled with the floating cells, washed in PBS, and fixed in 70% ice-cold ethanol overnight. […] […] The complete protocol and composition of buffers are described in the literature (Darzynkiewicz Z, Juan G, and Srour E F (2004) Differential Staining of DNA and RNA (2004). Current Protocols in Cytometry, Chapter 7:Unit 7.3).
The SW620 cells were cultured and treated as described in Example 1. For propidium iodide (PI) staining, manufacturer's protocol supplied with the Guava Cell Cycle Reagent for Flow Cytometry (EMD Millipore) was followed. The measurements were performed with Guava PCA-96 flow cytometer (EMD Millipore) using the green laser for excitation at 535 nm and monitoring emission at 617 nm.
The SW620 cells were cultured, treated, and analyzed as described in Examples 1. […]

DMS273 cells = test: CellTiter-Glo cell viability assay, DMS273 cells; settings: Homo sapiens, DMS-273, DMS273 cells
From the text: (§1) The following cell lines were obtained from ATCC and cultured according to the ATCC recommendations: DMS273—small cell lung cancer cell line; H1975—non-small cell lung cancer cell line harboring L858R and T790M mutations in EGFR TK; A549—a non-small cell lung cancer cell line with wild type EGFR; LNCap—prostate cancer cell line; SW620—colon cancer cell line; MiaPaCa2—pancreatic cancer cell line; PANC1—pancreatic cancer cell line; OVCAR3—ovarian cancer cell line; SK-OV-3—ovarian cancer cell line.
(§2) For viability analysis, cells were seeded into 96-well plates at 2×10^3-6×10^3 cells/well; the plated number of cells depended on cell size and rate of proliferation aiming for approximately 50% confluency. After seeding, the cells were allowed to attach for 24 hours incubated at 37° C. in a humidified 5% CO2 atmosphere.
(§3) The treatments were performed using at least 6 different concentrations of a compound in 1:3 serial dilutions in DMSO such that the DMSO concentration in the cell medium was <1%. The cell cultures were incubated for an additional 96 hours in 5% CO2 incubator at 37° C. Treatments were performed in triplicate. Results were analyzed by CellTiter-Glo™ Luminescent Cell Viability Assay (Promega, cat. #G7571) according to the manufacturer's instructions using Spectra MAX Gemini Spectrophotometer (Molecular Devices).

A549 cells = test: CellTiter-Glo cell viability assay, A549 cells; settings: Homo sapiens
From the text: as §1, §2, §3

H1975 cells = test: CellTiter-Glo cell viability assay, H1975 cells; settings: Homo sapiens, NCI-H1975, H1975 cells
From the text: as §1, §2, §3

PANC1 cells = test: CellTiter-Glo cell viability assay, PANC1 cells; settings: Homo sapiens, PANC-1, PANC1 cells
From the text: as §1, §2, §3

Compound | fraction of cells in quiescent state (G0), based on fraction of cells in G0+G1 phase (SW620 cells) | pEC50 (DMS273 cells; Compound I-7 not present) | pEC50 (DMS273 cells; Compound I-7 present at 2 μM) | pEC50 (DMS273 cells; Compound I-7 present at 4 μM) | pEC50 (A549 cells; Compound I-7 not present) | pEC50 (A549 cells; Compound I-7 present at 3 μM) | pEC50 (A549 cells; Compound I-7 present at 6 μM) | pEC50 (H1975 cells; Compound I-7 not present) | pEC50 (H1975 cells; Compound I-7 present at 2 μM) | pEC50 (H1975 cells; Compound I-7 present at 4 μM) | pEC50 (PANC1 cells; Compound I-7 not present) | pEC50 (PANC1 cells; Compound I-7 present at 2 μM) | pEC50 (PANC1 cells; Compound I-7 present at 4 μM)
COc1cc(N2CCN(C)CC2)ccc1Nc1nccc(-c2cn(C)c3cnccc23)n1 [AZ191] | no decrease in fraction of cells in quiescent state (G0) | – | – | – | – | – | – | – | – | – | – | – | –
CC[C@@H]1C(=O)N(C)c2cnc(Nc3ccc(C(=O)NC4CCN(C)CC4)cc3OC)nc2N1C1CCCC1 [BI2536] | – | 8.21 | 8.39 | 8.77 | 8.21 | 8.39 | 8.77 | 7.33 | 7.76 | > 10.40 | 8.14 | 8.36 | 8.60
C[C@@H](Oc1cc(-n2cnc3ccc(CN4CCN(C)CC4)cc32)sc1C(N)=O)c1ccccc1C(F)(F)F [GSK461364] | – | 6.37 | 6.62 | 6.92 | 5.92 | 6.30 | 6.70 | 5.72 | 6.01 | 6.24 | 6.30 | 6.52 | 6.70
